For orientation: IC50 means the concentration needed to halve the response being measured.

For two substances, IC50 results are on record in patent US5856439A, “Farnesyl transferase inhibitors, preparation thereof, and pharmaceutical compositions containing same” (Rhone-Poulenc Rorer S.A., priority 1995, dated 1999).

This assay deals with T1, human farnesyl transferase purified from THP1 cell cultures (Homo sapiens, UniProt P49354+P49356).
T1 construct: human farnesyl transferase purified from THP1 cell cultures; endogenous in cells; host or cells: THP1 cell cultures (enzyme purified from them)
The experiment in a line: Farnesyl transferase inhibition: [3H]farnesyl transfer from [3H]FPP to p21 H-ras. The assay is classed as biochemical. As to conditions: 20 minutes at 37° C., 9 concentrations, each test repeated 3 times, read-out: Inhibitory activity IC50. The procedure: Farnesyl transferase activity is determined by the quantity of [^3 H]farnesyl transferred from [^3 H]farnesyl pyrophosphate [[^3 H]FPP) to the p21 H-ras protein. The standard reaction mixture is composed, for a final volume of 60 μl, of 50 mM Tris-HCl, 5 mM MgCl2, 5 mM dithiotreitol, 0.2% octyl β-D-glucopyranoside, 200 picomol p21 H-ras, 4.5 picomol [^3 H]FPP (activity 61000 dpm/picomol).
Reaction is initiated by adding approximately 5 ng of human farnesyl transferase purified from THP1 cell cultures. After incubation for 20 minutes at 37° C. in a microtitration plate containing 96 1-cm^3 wells per plate (Titer Plate®, Beckman), the reaction is stopped by adding 0.4 cm^3 of 0.1% SDS in methanol at 0° C. The mixture is then treated with 0.4 cm^3 of 30% trichloroacetic acid® (TCA) in methanol. The plates are left in ice for 1 hour. […] The membranes are dried in a microwave oven, then impregnated with scintillation medium by melting Meltilex® (Pharmacia) under hot air, and lastly counted in cpm in a β-Plate® counter (LKB). […]
The percentage inhibition values are obtained by comparison of the tests with and without inhibitor after deduction of blanks, the IC50 values being measured on the basis of the inhibitions obtained with 9 different concentrations using Enzfitter® or Grafit® software.

Turning to “Cys-(N-Me)Val-[trans-3-phenyl-DL-prolyl]-Met”, the half-maximal inhibitory concentration (IC50) was 920 nM.

On to “Cys-(N-Me)Val-[cis-3-phenyl-DL-prolyl]-Met”, for which the IC50 was found to be 15.5 nM.
